Assays:
Assay type in all cases: in vivo
Leptosphaeria nodorum = experiment: Glume blotch of wheat (LEPTNO); settings: wheat (cultivar Monon), sprayed at 100 ppm, inoculated after 24 hours
Protocol: (§1) Compound Formulation: […] Final treatment volumes were obtained by adding nine volumes 0.05kOO aqueous Tween-20 or Triton X-100, depending upon the pathogen. Glume blotch of wheat (Leptosphaeria nodorum-[…]): Wheat (cultivar Monon) was grown from seed in a soilless peat-based potting mixture (Metromix) until the seedlings were 1-2 leaf (BBCH 12). These plants were then sprayed to run off with the test compound at a rate of 100 ppm. After 24 hours the test plants were inoculated with an aqueous spore suspension of Leptosphaeria nodorum. The plants were then transferred to the greenhouse until disease developed on the untreated control plants. Brown rust (Puccinia recondita-PUCCRT): Wheat (cultivar Monon) was grown from seed in a soilless peat-based potting mixture (Metromix) until the seedlings were 1-2 leaf (BBCH 12). These plants were then sprayed to run off with the test compound at a rate of 100 ppm. After 24 hours the test plants were inoculated with an aqueous spore suspension of Puccinia recondita. The plants were then transferred to the greenhouse until disease developed on the untreated control plants. The following table presents the activity of typical compounds of the present invention when evaluated in these experiments. The effectiveness of the test compounds in controlling disease was rated using the following scale: […]

Puccinia recondita = experiment: Brown rust (PUCCRT); settings: wheat (cultivar Monon), sprayed at 100 ppm, inoculated after 24 hours
Protocol: as §1

Erysiphe graminis = experiment: Powdery Mildew of Wheat (ERYSGT); settings: wheat (cultivar Monon), inoculated, sprayed at 25 ppm after 48 hours
Outline: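 Wheat seedlings (cv. Monon, 1–2 leaf stage) were dust-inoculated with Erysiphe graminis spores and sprayed to run-off with compound at 25 ppm 48 h later. Plants were kept in the greenhouse until disease developed on untreated controls. Disease control was rated on a scale.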

Plasmopara viticola = experiment: Downy Mildew of Grape (PLASVI), 96 hour protectant; settings: grape vines (cultivar Carignane), sprayed at 100 ppm, inoculated after 96 hours (protectant)
Outline: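 Carignane grape seedlings (10-20 cm) sprayed to run-off with test compound at 100 ppm in aqueous Tween-20 or Triton X-100; Plasmopara viticola sporangia suspension sprayed 96 h later.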

Compound | LEPTNO control of plant disease (Leptosphaeria nodorum) | PUCCRT control of plant disease (Puccinia recondita) | ERYSGT control of plant disease (Erysiphe graminis) | PLASVI control of plant disease (Plasmopara viticola)
CNC(=O)C(=NOC)c1ccccc1COc1cccc(OCC2COC(C)(C)O2)n1 (stereo not drawn) [Compound 2, Benzeneacetamide, 2-[[[6-((2,2-dimethyl-1,3-dioxolanyl)-4-methoxy)-2-pyridinyl]oxy]methy]-α-(methoxyimino)-N-methyl-] | ++ (++ = 75-100 % control of plant disease) | ++ (++ = 75-100 % control of plant disease) | + (+ = 25-74% control of plant disease) | ++ (++ = 75-100 % control of plant disease)
CNC(=O)C(=NOC)c1ccccc1COc1nc(OCC2COC(C)(C)O2)c(Cl)cc1Cl (centres unmarked) [Compound 1] | ++ (++ = 75-100 % control of plant disease) | ++ (++ = 75-100 % control of plant disease) | + (+ = 25-74% control of plant disease) | ++ (++ = 75-100 % control of plant disease)
